Measurements from article PMC3546728, “Bacterial Over-Expression and Purification of the 3′phosphoadenosine 5′phosphosulfate (PAPS) Reductase Domain of Human FAD Synthase: Functional Characterization and Homology Modeling” (International Journal of Molecular Sciences, 2012).

Legend:
6-His-Δ1-328-hFADS [1] = biological target: T1, 6-His-Δ1-328-hFADS (Homo sapiens, UniProt Q8NFF5); assay: fluorimetric FAD synthesis rate; assay type: biochemical; conditions: competitive; data not shown
T1 construct: gene FLAD1; C-terminal PAPS reductase domain, residues 329-587; vector pH6EX3; E. coli Rosetta (DE3); theoretical 31499 Da, ~28 kDa on SDS-PAGE
T1 sequence (Q8NFF5 329-587, stated change not applied): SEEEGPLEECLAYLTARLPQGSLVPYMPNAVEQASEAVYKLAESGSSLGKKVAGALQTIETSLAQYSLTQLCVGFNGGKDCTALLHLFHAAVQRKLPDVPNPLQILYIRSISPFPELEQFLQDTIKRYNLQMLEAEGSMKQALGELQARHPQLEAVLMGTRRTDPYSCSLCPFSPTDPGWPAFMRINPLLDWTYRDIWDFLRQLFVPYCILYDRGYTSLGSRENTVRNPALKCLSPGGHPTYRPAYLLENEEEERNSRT

6-His-Δ1-328-hFADS [2] = biological target: T1, 6-His-Δ1-328-hFADS; assay: absorbance spectrum of purified holoprotein; HPLC of flavin released by acid; assay type: binding; conditions: co-purified, tightly bound FAD, 40 mM Hepes/Na, 5 mM β-mercaptoethanol, pH 7.4

Row | Structure (SMILES) | fluorimetric FAD synthesis rate (6-His-Δ1-328-hFADS [1]) | FAD/protein monomer ratio (6-His-Δ1-328-hFADS [2])
1 | Nc1nc2c(ncn2[C@@H]2O[C@H](COP(=O)(O)OP(=O)(O)O)[C@@H](O)[C@H]2O)c(=O)[nH]1 [GDP] | no significant changes were found in competitive inhibition by GDP (data not shown) | 
2 | Cc1cc2nc3c(=O)[nH]c(=O)nc-3n(C[C@H](O)[C@H](O)[C@H](O)COP(=O)(O)OP(=O)(O)OC[C@H]3O[C@@H](n4cnc5c(N)ncnc54)[C@H](O)[C@@H]3O)c2cc1C [FAD] |  | demonstrates that the bound cofactor is FAD with a FAD/protein monomer ratio
